Experimental data taken from patent US20220202754A1, “USES OF PANTOTHENIC ACID IN PREPARATION OF A COMPOSITION FOR TREATING AND/OR PREVENTING TUMORS” (REVAISSANT (SHENZHEN) BIOSCIENCES CO., LTD., priority 2019, published 2022).

Experiments:
[1] = tested on: liver cancer cells (HEPA1-6) transplanted tumors; assay: Pantothenic acid for tumor prevention and treatment in mice: size of subcutaneously transplanted tumors; type: in vivo, C57BL/6 mice; details: gavage 0.02 g/ml; HEPA1-6 subcutaneous tumor; p<0.01; FIG. 4 and FIG. 5
Source text: FIG. 3 is a schematic diagram of the experimental procedure for detecting pantothenic acid, the metabolite of the intestinal bacteria to enhance an accumulation of CD8^+ cytotoxic T cells in the tumor microenvironment and to treat tumors in a mouse model of liver cancer. That is, an experimental procedure of administering pantothenic acid to mice subcutaneously transplanted with liver cancer cells (HEPA1-6). The time is expressed in days (Day, d) for administering pantothenic acid or for transplanting tumor cells.
Experimental animals: Twenty-seven C57BL/6 mice aged 3 to 4 weeks old in good mental state were purchased from the Experimental Animal Center of Sun Yat-sen University. The mice were randomly divided into 3 groups, nine mice for each group, and the 3 groups were a control group (the first group), a pantothenic acid group (the second group) and a Vitamin E control group (the third group) respectively. […] After dissection, the sizes of the subcutaneously transplanted tumors were measured, and the tumor cells were collected in situ. A relative amount of the CD8^+ T lymphocytes in the tumor microenvironment was detected and analyzed by flow cytometry.

[2] = tested on: CD8+ T lymphocytes in the liver tumor microenvironment; assay: Relative amount of CD8+ T lymphocytes in the tumor microenvironment by flow cytometry; type: in vivo, C57BL/6 mice; details: for increase of relative amount of CD8+ T lymphocytes in the liver tumor microenvironment: one typical mouse per group, FIG. 6
Source text: Experimental animals: Twenty-seven C57BL/6 mice aged 3 to 4 weeks old in good mental state were purchased from the Experimental Animal Center of Sun Yat-sen University. The mice were randomly divided into 3 groups, nine mice for each group, and the 3 groups were a control group (the first group), a pantothenic acid group (the second group) and a Vitamin E control group (the third group) respectively. The 3 groups of mice were continually administered by gavage with pure water, pantothenic acid (at a concentration of 0.02 g/ml, purchased from the Sigma official website) and Vitamin E (at a concentration of 0.02 g/ml, purchased from the Sigma official website) for 3 to 4 weeks, respectively. After the mouse tumor (liver cancer) cells HEPA1-6 grew at logarithmic phase, they were digested with trypsin, and culture medium was neutralized. After centrifugation, the cells were collected, washed twice with DPBS to remove residual serum. Finally, the cells were redissolved with DPBS. After cell counting was completed, each mouse was subcutaneously inoculated with 10^6 cells into right axilla and continually treated by gavage, respectively, and the tumor-bearing mice were killed after 2 to 3 weeks. After dissection, the sizes of the subcutaneously transplanted tumors were measured, and the tumor cells were collected in situ. A relative amount of the CD8^+ T lymphocytes in the tumor microenvironment was detected and analyzed by flow cytometry.

SMILES: CC(C)(CO)[C@@H](O)C(=O)NCCC(=O)O [pantothenic acid]
- reduction of size of liver cancer cell transplanted tumors [1]: about 80%
- relative amount of CD8+ T lymphocytes in the tumor microenvironment (percentage of total cells) ([2]; compared with pure water control group and Vitamin E control group, statistical analysis, p<0.05, FIG. 7): significantly increases
- increase of relative amount of CD8+ T lymphocytes in the liver tumor microenvironment ([2]; compared with the Vitamin E control group): more than 3 times
- increase of relative amount of CD8+ T lymphocytes in the liver tumor microenvironment ([2]; compared with the pure water control group): more than 7 times
